Laboratory results reported in PMC7181660, “A novel specific PERK activator reduces toxicity and extends survival in Huntington's disease models” (Scientific Reports, 2020).
Read-outs that look alike come from different tables or passages of the source.

Key:
Assay in all cases: biochemical
Format in all cases: biochemical
panel of 391 kinases [1] = target: panel of 391 kinases (Homo sapiens, UniProt P35626); details: GRK3, MK-28 1 µM, ATP 1 µM
panel of 391 kinases [2] = target: panel of 391 kinases (Homo sapiens, UniProt P25098); details: GRK2, MK-28 1 µM, ATP 1 µM
panel of 391 kinases [3] = target: panel of 391 kinases (Homo sapiens, UniProt P53667); details: LIMK1, MK-28 1 µM, ATP 1 µM
panel of 391 kinases [4] = target: panel of 391 kinases (Homo sapiens, UniProt P49761); details: CLK3, MK-28 1 µM, ATP 1 µM
panel of 391 kinases [5] = target: panel of 391 kinases (Homo sapiens, UniProt P23458); details: JAK1, MK-28 1 µM, ATP 1 µM
panel of 391 kinases [6] = target: panel of 391 kinases (Homo sapiens, UniProt P22694); details: PKAcb, MK-28 1 µM, ATP 1 µM
panel of 391 kinases [7] = target: panel of 391 kinases (Homo sapiens, UniProt Q9UBS0); details: p70S6Kb/RPS6KB2, MK-28 1 µM, ATP 1 µM
panel of 391 kinases [8] = target: panel of 391 kinases (Homo sapiens, UniProt Q96RR4); details: CAMKK2, MK-28 1 µM, ATP 1 µM
panel of 391 kinases [9] = target: panel of 391 kinases (Homo sapiens, UniProt P24723); details: PKCeta, MK-28 1 µM, ATP 1 µM
panel of 391 kinases [10] = target: panel of 391 kinases (Homo sapiens, UniProt Q9BYP7); details: WNK3, MK-28 1 µM, ATP 1 µM
panel of 391 kinases [11] = target: panel of 391 kinases (Homo sapiens, UniProt Q16584); details: MLK3/MAP3K11, MK-28 1 µM, ATP 1 µM
panel of 391 kinases [12] = target: panel of 391 kinases (Homo sapiens, UniProt Q6P5Z2); details: PKN3/PRK3, MK-28 1 µM, ATP 1 µM
panel of 391 kinases [13] = target: panel of 391 kinases (Homo sapiens, UniProt P00519); details: ABL1, MK-28 1 µM, ATP 1 µM
panel of 391 kinases [14] = target: panel of 391 kinases (Homo sapiens, UniProt P54756); details: EPHA5, MK-28 1 µM, ATP 1 µM
panel of 391 kinases [15] = target: panel of 391 kinases (Homo sapiens, UniProt Q8WTQ7); details: GRK7, MK-28 1 µM, ATP 1 µM
panel of 391 kinases [16] = target: panel of 391 kinases (Homo sapiens, UniProt Q00535); details: MK-28 1 µM, ATP 1 µM; for remaining activity at 1 µM: read-out: % Enzyme Activity (relative to DMSO controls)
panel of 391 kinases [17] = target: panel of 391 kinases (Homo sapiens, UniProt Q13153); details: PAK1, MK-28 1 µM, ATP 1 µM
panel of 391 kinases [18] = target: panel of 391 kinases (Homo sapiens, UniProt P51451); details: BLK, MK-28 1 µM, ATP 1 µM
panel of 391 kinases [19] = target: panel of 391 kinases (Homo sapiens, UniProt P15056); details: BRAF, MK-28 1 µM, ATP 1 µM
panel of 391 kinases [20] = target: panel of 391 kinases (Homo sapiens, UniProt P10721); details: c-Kit, MK-28 1 µM, ATP 1 µM
panel of 391 kinases [21] = target: panel of 391 kinases (Homo sapiens, UniProt Q15139); details: PKCmu/PRKD1, MK-28 1 µM, ATP 1 µM
panel of 391 kinases [22] = target: panel of 391 kinases (Homo sapiens, UniProt Q08881); details: ITK, MK-28 1 µM, ATP 1 µM
panel of 391 kinases [23] = target: panel of 391 kinases (Homo sapiens, UniProt Q09013); details: DMPK, MK-28 1 µM, ATP 1 µM
panel of 391 kinases [24] = target: panel of 391 kinases (Homo sapiens, UniProt P53355); details: DAPK1, MK-28 1 µM, ATP 1 µM
panel of 391 kinases [25] = target: panel of 391 kinases (Homo sapiens, UniProt Q05655); details: PKCd, MK-28 1 µM, ATP 1 µM
panel of 391 kinases [26] = target: panel of 391 kinases (Homo sapiens, UniProt P54762); details: EPHB1, MK-28 1 µM, ATP 1 µM
[27] = read-out: % Enzyme Activity (relative to DMSO controls)

## CN(/N=C\c1ccc(O)c(O)c1)c1nc(-c2ccccc2)cc(-c2ccccc2)n1 [MK-28]
Panel of 391 kinases [1]
  % Enzyme Activity (relative to DMSO controls): 99.99%
Panel of 391 kinases [1]; [27]
  remaining activity at 1 µM: 102%
Panel of 391 kinases [2]
  % Enzyme Activity (relative to DMSO controls): 99.37%
Panel of 391 kinases [2]; [27]
  remaining activity at 1 µM: 99.8%
Panel of 391 kinases [3]
  % Enzyme Activity (relative to DMSO controls): 93.55%
Panel of 391 kinases [3]; [27]
  remaining activity at 1 µM: 101%
Panel of 391 kinases [4]
  % Enzyme Activity (relative to DMSO controls): 105.09%
Panel of 391 kinases [4]; [27]
  remaining activity at 1 µM: 110%
Panel of 391 kinases [5]
  % Enzyme Activity (relative to DMSO controls): 100.53%
Panel of 391 kinases [5]; [27]
  remaining activity at 1 µM: 101%
Panel of 391 kinases [6]
  % Enzyme Activity (relative to DMSO controls): 95.23%
Panel of 391 kinases [6]; [27]
  remaining activity at 1 µM: 99.2%
Panel of 391 kinases [7]
  % Enzyme Activity (relative to DMSO controls): 91.85%
Panel of 391 kinases [7]; [27]
  remaining activity at 1 µM: 93.6%
Panel of 391 kinases [8]
  % Enzyme Activity (relative to DMSO controls): 93.50%
Panel of 391 kinases [8]; [27]
  remaining activity at 1 µM: 97.2%
Panel of 391 kinases [9]
  % Enzyme Activity (relative to DMSO controls): 98.39%
Panel of 391 kinases [9]; [27]
  remaining activity at 1 µM: 101%
Panel of 391 kinases [10]
  % Enzyme Activity (relative to DMSO controls): 104.23%
Panel of 391 kinases [10]; [27]
  remaining activity at 1 µM: 105%
Panel of 391 kinases [11]
  % Enzyme Activity (relative to DMSO controls): 162.84%
Panel of 391 kinases [11]; [27]
  remaining activity at 1 µM: 168%
Panel of 391 kinases [12]
  % Enzyme Activity (relative to DMSO controls): 98.68%
Panel of 391 kinases [12]; [27]
  remaining activity at 1 µM: 101%
Panel of 391 kinases [13]
  % Enzyme Activity (relative to DMSO controls): 94.94%
Panel of 391 kinases [13]; [27]
  remaining activity at 1 µM: 98.9%
Panel of 391 kinases [14]
  % Enzyme Activity (relative to DMSO controls): 98.83%
Panel of 391 kinases [14]; [27]
  remaining activity at 1 µM: 103%
Panel of 391 kinases [15]
  % Enzyme Activity (relative to DMSO controls): 97.74%
Panel of 391 kinases [15]; [27]
  remaining activity at 1 µM: 98.5%
Panel of 391 kinases [16]; CDK5/p25
  % Enzyme Activity (relative to DMSO controls): 93.55%
  remaining activity at 1 µM: 93.6%
Panel of 391 kinases [16]; CDK5/p35
  % Enzyme Activity (relative to DMSO controls): 96.39%
  remaining activity at 1 µM: 96.6%
Panel of 391 kinases [17]
  % Enzyme Activity (relative to DMSO controls): 100.75%
Panel of 391 kinases [17]; [27]
  remaining activity at 1 µM: 102%
Panel of 391 kinases [18]
  % Enzyme Activity (relative to DMSO controls): 82.35%
Panel of 391 kinases [18]; [27]
  remaining activity at 1 µM: 85.3%
Panel of 391 kinases [19]
  % Enzyme Activity (relative to DMSO controls): 99.64%
Panel of 391 kinases [19]; [27]
  remaining activity at 1 µM: 101%
Panel of 391 kinases [20]
  % Enzyme Activity (relative to DMSO controls): 93.67%
Panel of 391 kinases [20]; [27]
  remaining activity at 1 µM: 93.8%
Panel of 391 kinases [21]
  % Enzyme Activity (relative to DMSO controls): 94.26%
Panel of 391 kinases [21]; [27]
  remaining activity at 1 µM: 95.3%
Panel of 391 kinases [22]
  % Enzyme Activity (relative to DMSO controls): 92.03%
Panel of 391 kinases [22]; [27]
  remaining activity at 1 µM: 92.4%
Panel of 391 kinases [23]
  % Enzyme Activity (relative to DMSO controls): 103.01%
Panel of 391 kinases [23]; [27]
  remaining activity at 1 µM: 104%
Panel of 391 kinases [24]
  % Enzyme Activity (relative to DMSO controls): 129.26%
Panel of 391 kinases [24]; [27]
  remaining activity at 1 µM: 135%
Panel of 391 kinases [25]
  % Enzyme Activity (relative to DMSO controls): 97.74%
Panel of 391 kinases [25]; [27]
  remaining activity at 1 µM: 98.5%
Panel of 391 kinases [26]
  % Enzyme Activity (relative to DMSO controls): 96.23%
Panel of 391 kinases [26]; [27]
  remaining activity at 1 µM: 98.1%
